Experimental data taken from patent publication US9062123B2, “Labelled adrenomedullin derivatives and their use for imaging and therapy” (PLUMOSCIENCE INC., priority 2004, dated 2015).

Target: AM1 (CRLR+RAMP2) receptor, lungs of dogs
Assay: Displacement of labelled human adrenomedullin in the lungs of dogs
Type: binding, dog
Conditions: displacement of labelled hAM

IC50 [nM] | Molecule
7.1 | CC[C@H](C)[C@H](NC(=O)[C@H](CCC(N)=O)NC(=O)[C@H](Cc1c[nH]cn1)NC(=O)[C@H](C)NC(=O)[C@H](CC(C)C)NC(=O)[C@H](CCCCN)NC(=O)[C@H](CCC(N)=O)NC(=O)[C@@H](NC(=O)[C@@H](NC(=O)[C@H](CS)NC(=O)[C@@H](NC(=O)CNC(=O)[C@H](Cc1ccccc1)NC(=O)[C@H](CCCNC(=N)N)NC(=O)[C@H](CS)NC(=O)CNC(=O)[C@H](Cc1ccccc1)NC(=O)[C@H](CO)NC(=O)[C@H](CCCNC(=N)N)NC(=O)[C@H](CC(C)C)NC(=O)CNC(=O)[C@H](CCC(N)=O)NC(=O)[C@H](Cc1ccccc1)NC(=O)[C@H](CC(N)=O)NC(=O)[C@H](CC(N)=O)NC(=O)[C@H](CCSC)NC(=O)[C@H](CO)NC(=O)[C@H](CCC(N)=O)NC(=O)[C@H](CCCNC(=N)N)NC(=O)[C@@H](N)Cc1ccc(O)cc1)[C@@H](C)O)[C@@H](C)O)C(C)C)C(=O)N[C@@H](Cc1ccc(O)cc1)C(=O)N[C@@H](CCC(N)=O)C(=O)N[C@@H](Cc1ccccc1)C(=O)N[C@H](C(=O)N[C@@H](CC(=O)O)C(=O)N[C@@H](CCCCN)C(=O)N[C@@H](CC(=O)O)C(=O)N[C@@H](CCCCN)C(=O)N[C@@H](CC(=O)O)C(=O)N[C@@H](CC(N)=O)C(=O)N[C@H](C(=O)N[C@@H](C)C(=O)N1CCC[C@H]1C(=O)N[C@@H](CCCNC(=N)N)C(=O)N[C@@H](CO)C(=O)N[C@@H](CCCCN)C(=O)N[C@H](C(=O)N[C@@H](CO)C(=O)N1CCC[C@H]1C(=O)N[C@@H](CCC(N)=O)C(=O)NCC(=O)N[C@@H](Cc1ccc(O)cc1)C(N)=O)[C@@H](C)CC)C(C)C)[C@@H](C)O [hAM linear, Linear adrenomedullin]
480 | hAM2: AM2, a peptide within the same family as AM [reference compound]
≥ 10000 | hAM(1-25): human adrenomedullin fragment, amino acids 1-25 (YRQSMNNFQGLRSFGCRFGTCTVQK)
≥ 1000 | hAM(26-52): human adrenomedullin fragment, amino acids 26-52 (LAHQIYQFTDKDKDNVAPRSKISPQGY)
34 | hAM(13-52): human adrenomedullin fragment, amino acids 13-52
0.041 | N-Ac hAM: N-terminal acetylated AM
980 | hAM2(16-47): fragment 16-47 of hAM2 (QVQNLSHRLWQLMGPAGRQDSAPVDPSSPHSY) [reference compound]
≥ 10000 | hAM(40-52): human adrenomedullin fragment, amino acids 40-52 (NVAPRSKISPQGY)
≥ 10000 | PAMP: synthetic peptide of Table 1, not further defined (ARLDVASEFRKKWNKWALSR) [reference compound]

Molecule | IC50 [nM]
CGRP(8-37): CGRP fragment 8-37 [reference compound] | ≥ 10000
